Source: US20260216346A1, “COMPOUND, NANOPARTICLES, MEDICINE, AND METHOD FOR PRODUCING NANOPARTICLES” (priority 2022, published 2026)
“Also recorded” adds a separate entry of the source.

Assays:
[1] = test system: human breast cancer cell line MCF-7; experiment: In vitro activity test: cell viability, Cell Counting Kit-8; assay type: cell-based; conditions: nanoparticle dispersion, 0.04 to 10 µM (in terms of SN-38), 48 hours, FIG. 2
Procedure: A human breast cancer cell line MCF-7 was suspended in Dulbecco's modified Eagle's medium (DMEM) to which 10% fetal bovine serum (FBS) was added, thereby preparing a cell suspension of 2×10^5 cells/mL. The above-described cell suspension was seeded on a 96-well plate at 100 μL per well. The next day, the aqueous dispersion liquid of the nanoparticles of compound (1-1), the aqueous dispersion liquid of the nanoparticles of compound (2-1), or the aqueous dispersion liquid of the nanoparticles of SN-38, prepared as described above, was added to the MCF-7 cell culture solution so that the concentration thereof was 0.04 to 10 µM (in terms of SN-38). Thereafter, the cells were cultured at 37° C. and 5% CO2 for 48 hours. Thereafter, cell viability was measured by a colorimetric method using Cell Counting Kit-8 (manufactured by DOJINDO LABORATORIES.) and a microplate reader.

[2] = Drug release test in PBS under reduced dithiothreitol treatment (1); assay type: physicochemical; conditions: nanoparticles 5 μM, PBS (-) pH 7.4 with 10 mM reduced DTT, 37° C., 1 hour or 24 hours, HPLC
Procedure: In the present test, the release of SN-38 from compound (1-1) and compound (2-1) in PBS to which reduced DTT was added was evaluated.
A solution was prepared by adding an aqueous dispersion liquid (5 μM, 500 μL) of nanoparticles of compound (1-1) or an aqueous dispersion liquid (5 μM, 500 μL) of nanoparticles of compound (2-1) to 500 µL of PBS (-) to which 10 mM of reduced dithiothreitol (DTT) had been added. “PBS (-)” used hereinafter is phosphate-buffered saline (pH: 7.4) containing NaCl (137 mM), KCl (2.7 mM), Na2HPO4 (10 mM), and KH2PO4 (1.76 mM).
The above-described reaction solution was incubated at 37° C. for 1 hour or 24 hours. 200 μL of the reaction solution after incubation was collected. The collected reaction solution was mixed with 800 μL of a 3% acetic acid solution of acetonitrile/methanol (1/1). The obtained mixed solution was analyzed by high-performance liquid chromatography (detection wavelength: 365 nm) as an analysis target sample.

[3] = Drug release test in PBS under reduced glutathione treatment; assay type: physicochemical; conditions: nanoparticles 50 μM, PBS(−)/EtOH (7/3) pH 7.4 with 10 mM reduced GSH, 37° C., 1, 6, 24 or 48 hours, HPLC
Procedure: In the present test, the release of SN-38 from compound (1-1) and compounds (2-1) to (2-3) in PBS to which the reduced GSH was added was evaluated.
A reaction solution was prepared by adding the aqueous dispersion liquid (50 μM, 500 μL) of the nanoparticles of compound (1-1) or the aqueous dispersion liquid (50 μM, 500 μL) of the nanoparticles of any one of compounds (2-1) to (2-3) to 500 μL of PBS(−)/EtOH (7/3) (pH: 7.4) to which 10 mM of reduced glutathione (GSH) had been added.
The above-described reaction solution was incubated at 37° C. for 1 hour, 6 hours, 24 hours, or 48 hours. 200 μL of the reaction solution was collected after the incubation. The collected reaction solution was mixed with 800 μL of a 3% acetic acid solution of acetonitrile/methanol (1/1). The obtained mixed solution was analyzed by high-performance liquid chromatography (detection wavelength: 365 nm) as an analysis target sample.

[4] = Particle diameter of nanoparticles by SEM and DLS; assay type: physicochemical; conditions: aqueous dispersion liquid, 0.05 mM
Procedure: 100 μL of a dimethyl sulfoxide solution of compound (1-1), prepared at 5 mM, was injected into 10 mL of water at room temperature using a syringe, and the mixture was stirred at 1,500 rpm for 2 seconds to obtain an aqueous dispersion liquid of nanoparticles. The final concentration of compound (1-1) in the aqueous dispersion liquid of the nanoparticles was 0.05 mM. It was confirmed by SEM and DLS that a particle diameter thereof was approximately 100 nm. […] A ClogP of compound (1-1) was 5.92.

In the case of CCc1c2c(nc3ccc(OC(=O)C(C)(C)CCSSCCC(C)(C)C(=O)Oc4ccc5nc6c(c(CC)c5c4)Cn4c-6cc5c(c4=O)COC(=O)[C@]5(O)CC)cc13)-c1cc3c(c(=O)n1C2)COC(=O)[C@]3(O)CC [Compound (1-1)], the “cell viability of MCF-7” value [1] was “higher cell viability of MCF-7 compared with SN-38; also recorded: lower than that of compound (2-1)”, the “release of SN-38” value [2] was “SN-38 was released” and the “release of SN-38” value [3] was “compound (1-1) was reduced and SN-38 was increased with the passage of time”. The “particle diameter of nanoparticles” value [4] was “approximately 100 nm”.
